US9527807B2, “Sulfonamide derivative and use thereof” (Takeda Pharmaceutical Company Limited, priority 2011, dated 2016)

These molecules were tested against T1, AMPA receptor (human GluR1 flip/stargazin expressed in CHO-K1 cells) (Homo sapiens, UniProt P42261) (assay: AMPA receptor function enhancing activity using calcium influx as index). Conditions: change in fluorescence level in 3 min, 100% = 3 mM glutamic acid + 300 μM cyclothiazide, 0% = 3 mM glutamic acid only.
T1 construct: expressed in transfected cells; host or cells: CHO-K1
T1 sequence (P42261 19-906 isoform P42261-2 limits assumed): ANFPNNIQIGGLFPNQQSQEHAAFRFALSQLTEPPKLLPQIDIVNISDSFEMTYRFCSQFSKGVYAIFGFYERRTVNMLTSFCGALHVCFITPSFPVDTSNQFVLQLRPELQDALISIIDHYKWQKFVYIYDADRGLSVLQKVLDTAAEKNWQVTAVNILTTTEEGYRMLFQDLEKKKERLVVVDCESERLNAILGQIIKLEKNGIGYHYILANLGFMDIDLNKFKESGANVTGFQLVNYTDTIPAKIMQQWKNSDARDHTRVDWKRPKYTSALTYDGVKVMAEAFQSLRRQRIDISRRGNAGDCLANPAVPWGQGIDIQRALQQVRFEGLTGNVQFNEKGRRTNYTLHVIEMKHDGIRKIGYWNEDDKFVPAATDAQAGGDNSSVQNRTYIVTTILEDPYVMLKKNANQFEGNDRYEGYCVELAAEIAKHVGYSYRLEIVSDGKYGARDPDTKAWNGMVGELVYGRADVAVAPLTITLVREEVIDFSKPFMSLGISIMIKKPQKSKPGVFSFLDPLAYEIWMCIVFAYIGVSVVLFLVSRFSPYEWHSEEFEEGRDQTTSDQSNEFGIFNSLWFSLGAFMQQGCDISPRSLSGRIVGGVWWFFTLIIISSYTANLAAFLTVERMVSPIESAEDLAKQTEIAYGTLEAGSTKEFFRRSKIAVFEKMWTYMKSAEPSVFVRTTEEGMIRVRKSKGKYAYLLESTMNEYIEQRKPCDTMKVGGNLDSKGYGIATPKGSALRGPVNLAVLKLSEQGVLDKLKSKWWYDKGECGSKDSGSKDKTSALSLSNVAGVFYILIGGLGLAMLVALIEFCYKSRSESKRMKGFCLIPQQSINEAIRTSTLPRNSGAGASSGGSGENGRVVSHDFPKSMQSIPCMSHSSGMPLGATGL
T1 sequence (Q9Y698 whole entry partner): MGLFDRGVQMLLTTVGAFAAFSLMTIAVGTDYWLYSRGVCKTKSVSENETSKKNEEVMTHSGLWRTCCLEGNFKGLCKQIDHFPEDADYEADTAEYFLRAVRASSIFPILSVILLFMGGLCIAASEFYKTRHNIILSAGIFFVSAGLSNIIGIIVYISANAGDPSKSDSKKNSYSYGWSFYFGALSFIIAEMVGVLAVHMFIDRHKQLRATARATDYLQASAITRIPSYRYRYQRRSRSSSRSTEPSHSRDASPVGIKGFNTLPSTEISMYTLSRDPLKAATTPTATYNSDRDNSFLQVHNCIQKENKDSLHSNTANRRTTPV
Assay type: cell-based
Description: Human GluR1 flip cDNA was amplified by PCR using forward primer […] (SEQ ID NO: 1) and reverse primer […] (SEQ ID NO: 2) artificially synthesized using human brain-derived cDNA (BD Bio science) as a template. The amplified product was digested with restriction enzymes EcoRI, NotI (TAKARA SHUZO CO. LTD.), and incorporated into the same site of pcDNA3.1(+) (Invitrogen) to construct pcDNA3.1(+)/human GluR1 flip gene. Human stargazin cDNA was amplified by PCR using forward primer […] (SEQ ID NO: 3) and reverse primer. […] (SEQ ID NO: 4) artificially synthesized using human hippocampus cDNA as a template. The amplified product was digested with restriction enzymes XhoI, BamHI (TAKARA SHUZO CO. LTD.), and incorporated into the same site of pcDNA3.1(−) (Invitrogen) to construct pcDNA3.1 Zeo(−)/human stargazin gene.
(2) Construction of GluR1 Flip/Stargazin Expressing Cell
CHO-K1 cells passaged in a culture medium (Ham's F12 medium (Invitrogen) added with 10% inactivated fetal bovine serum (Morgate) and penicillin, streptomycin (Invitrogen)) were detached with 0.05% trypsin, 0.53 mM EDTA (Invitrogen) diluted with D-PBS(−). The detached cells were suspended in a culture medium, and recovered by a centrifugation operation at 1,000 rpm. The recovered cells were suspended again in D-PBS(−), and added to a 0.4 cm electroporation cuvette (BioRad). pcDNA3.1(+)/human GluR1 flip gene (5 μg) and pcDNA3.1 Zeo(−)/human stargazin gene (15 μg) were added, and the mixture was introduced into CHO-K1 cells using Gene Pulser II (BioRad) under the conditions of 950 μFd, […]. The introduced cells were cultured overnight in a culture medium and, the next day, plated in a 96 well plate at 250 cells/well using a selection medium (culture medium added with Zeocin (Invitrogen) to 250 μg/mL). Clones showing drug resistance were selected, and GluR1 flip/stargazin expressing clones were selected by an assay method using calcium influx as an index as shown below.
(3) Measurement Method of AMPA Receptor Function Enhancing Activity of Compound Using Calcium Influx as Index
CHO-K1/GluR1 flip/stargazin expressing cells were plated on a 384 well black transparent bottom plate (FMAT4307723) at 0.5×10^4 cells/well, and cultured in a 37° C., CO2 incubator (SANYO Electric Co., Ltd.) for 2 days. The medium in the cell plate was removed, and a calcium indicator (Calcium 4 Assay Kit, Molecular. Devices) containing 1.25 mM probenecid (Invitrogen) was added at 25 μL/well and the well was left standing in 37° C., CO2 incubator for 1 hr. The cell plate was set in FLITRtetra (Molecular Devices), a mixture (12.5 μL) of 9 mM glutamic acid diluted with assay buffer B (HBSS (Invitrogen), 0.1% BSA, 10 mM HEPES) and a test compound was added, and the amount of change in fluorescence level in 3 min was measured. In the definition here, the amount of change in fluorescence level of well added with glutamic acid at final concentration 3 mM and 300 μM cyclothiazide (TOCRIS) is 100%, the amount of change in fluorescence level of well added only with glutamic acid at final concentration 3 mM is 0%, and the compound activity was calculated according to the following formula. activity (%)=(X−C)/(T−C)×100 T: amount of change in fluorescence level of well added with glutamic acid at final concentration 3 mM and 300 μM cyclothiazide C: amount of change in fluorescence level of well added only with glutamic acid at final concentration 3 mM X: amount of change in fluorescence level of well added with to test compound
`CCS(=O)(=O)N[C@H]1CCN(C(C)=O)C[C@@H]1COc1ccc(CCC#N)cc1` (relative stereo) [Example 2, trans-N-[1-acetyl-3-{[4-(2-cyanoethyl)phenoxy]methyl}piperidin-4-yl]ethanesulfonamide] was tested, and the “activity (%)” value was 38%. For `CCS(=O)(=O)N[C@H]1CCN(C(C)=O)C[C@@H]1COc1ccc(-n2cccn2)cc1` (relative stereo) [Example 3, trans-N-[1-acetyl-3-{[4-(1H-pyrazol-1-yl)phenoxy]methyl}piperidin-4-yl]ethanesulfonamide], the “activity (%)” value was 57%. `CCS(=O)(=O)N[C@H]1CCOC[C@@H]1COc1ccc(C2CC2)cc1` (relative stereo) [Example 7, trans-N-{3-[(4-cyclopropylphenoxy)methyl]tetrahydro-2H-pyran-4-yl}ethanesulfonamide] was tested, and the “activity (%)” value was 91%. For `CCS(=O)(=O)N[C@H]1CCCC[C@@H]1COc1ccc(C(C)C)cc1` (relative stereo) [Example 8, trans-N-[2-{[4-(1-methylethyl)phenoxy]methyl}cyclohexyl]ethanesulfonamide], the “activity (%)” value was 79%. For `O=S(=O)(N[C@@H]1CCCC[C@H]1COc1ccc(C2CC2)cc1)C1CC1` (relative stereo) [Example 12, trans-N-[2-[(4-cyclopropylphenoxy)methyl]cyclohexyl]cyclopropanesulfonamide], the “activity (%)” value was 72%. `CCS(=O)(=O)N[C@H]1CCC[C@@H]1COc1ccc(C(C)C)cc1` (relative stereo) [Example 15, trans-N-[2-{[4-(1-methylethyl)phenoxy]methyl}cyclopentyl]ethanesulfonamide] was tested, and the “activity (%)” value was 88%. In the case of `CC(C)S(=O)(=O)N[C@H]1CCCC[C@@H]1COc1ccc(C2CC2)cc1` (relative stereo) [Example 21, trans-N-{2-[(4-cyclopropylphenoxy)methyl]cyclohexyl}propane-2-sulfonamide], the “activity (%)” value is reported as 82%. In the case of `CCS(=O)(=O)N[C@H]1CCOC[C@@H]1COc1ccc(C(C)C)cc1` (relative stereo) [Example 34, trans-N-{3-[(4-isopropylphenoxy)methyl]tetrahydro-2H-pyran-4-yl}ethanesulfonamide], the “activity (%)” value is reported as 77%. With `CCS(=O)(=O)N[C@H]1CCC(=O)C[C@@H]1COc1ccc(C(C)C)cc1` (relative stereo) [Example 39, trans-N-[2-{[4-(1-methylethyl)phenoxy]methyl}-4-oxocyclohexyl]ethanesulfonamide] the “activity (%)” value was 81%. In the case of `CCS(=O)(=O)N[C@H]1CCCC[C@@H]1COc1ccc(C2COC2)cc1` (relative stereo) [Example 43, trans-N-{2-[(4-oxetan-3-ylphenoxy)methyl]cyclohexyl}ethanesulfonamide], the “activity (%)” value is reported as 86%. `CCS(=O)(=O)N[C@@H]1CCCC[C@H]1COc1ccc(CCC#N)cc1` (relative stereo) [Example 50, trans-N-[2-{[4-(2-cyanoethyl)phenoxy]methyl}cyclohexyl] ethanesulfonamide] was tested, and the “activity (%)” value was 78%. With `CCS(=O)(=O)N[C@H]1CCCC[C@@H]1COc1ccc(OC(F)F)cc1` (relative stereo) [Example 52, trans-N-[2-{[4-(difluoromethoxy)phenoxy]methyl}cyclo-hexyl]ethanesulfonamide] the “activity (%)” value was 69%. For `CCS(=O)(=O)N[C@H]1CCCC[C@@H]1COc1ccc(-n2cccn2)cc1` (relative stereo) [Example 60, trans-N-[2-{[4-(1H-pyrazol-1-yl)phenoxy]methyl}cyclohexyl]ethane-sulfonamide], the “activity (%)” value was 80%. In the case of `CCS(=O)(=O)N[C@H]1CCCC[C@@H]1COc1ccc(C(C)=O)cc1` (relative stereo) [Example 89, trans-N-{2-[(4-acetylphenoxy)methyl]cyclohexyl}ethane-sulfonamide], the “activity (%)” value is reported as 75%. With `CCS(=O)(=O)N[C@H]1COCC[C@@H]1COc1ccc(C(C)C)cc1` (relative stereo) [Example 95, trans-N-[4-{[4-(1-methylethyl)phenoxy]methyl}tetrahydro-2H-pyran-3-yl]ethanesulfonamide] the “activity (%)” value was 73%. With `CCS(=O)(=O)N[C@H]1CCC(F)(F)C[C@@H]1COc1ccc(-n2cccn2)cc1` (relative stereo) [Example 130, trans-N-[4,4-difluoro-2-{[4-(1H-pyrazol-1-yl)phenoxy]methyl}cyclohexyl]ethanesulfonamide] the “activity (%)” value was 90%. For `CCS(=O)(=O)N[C@H]1CCOC[C@@H]1COc1ccc(C(C)=O)c(F)c1` (relative stereo) [Example 131, trans-N-{3-[(4-acetyl-3-fluorophenoxy)methyl]tetrahydro-2H-pyran-4-yl}ethanesulfonamide], the “activity (%)” value was 89%. `CCS(=O)(=O)N[C@H]1CCOC[C@@H]1COc1ccc(-n2cc(C)cn2)cc1` (relative stereo) [Example 134, trans-N-[3-{[4-(4-methyl-1H-pyrazol-1-yl)phenoxy]methyl}tetrahydro-2H-pyran-4-yl]ethanesulfonamide] was tested, and the “activity (%)” value was 92%. `CCS(=O)(=O)N[C@H]1CCOC[C@@H]1COc1ccc(C(C)=O)cc1` (relative stereo) [Example 135, trans-N-{3-[(4-acetylphenoxy)methyl]tetrahydro-2H-pyran-4-yl}ethanesulfonamide] was tested, and the “activity (%)” value was 88%. In the case of `CCS(=O)(=O)N[C@H]1CCOC[C@@H]1COc1ccc(C(C)=O)cc1F` (relative stereo) [Example 136, trans-N-{3-[(4-acetyl-2-fluorophenoxy)methyl]tetrahydro-2H-pyran-4-yl}ethanesulfonamide], the “activity (%)” value is reported as 85%. `CCS(=O)(=O)N[C@H]1CCOC[C@@H]1COc1ccc(-c2ccccn2)cc1` (relative stereo) [Example 137, trans-N-{3-[(4-pyridin-2-ylphenoxy)methyl]tetrahydro-2H-pyran-4-yl}ethanesulfonamide] was tested, and the “activity (%)” value was 91%. `CCS(=O)(=O)N[C@H]1CCOC[C@@H]1COc1ccc(-c2cccnc2)cc1` (relative stereo) [Example 138, trans-N-{3-[(4-pyridin-3-ylphenoxy)methyl]tetrahydro-2H-pyran-4-yl}ethanesulfonamide] was tested, and the “activity (%)” value was 95%. For `CCS(=O)(=O)N[C@H]1CCOC[C@@H]1COc1ccc(-n2cnc(C)c2)cc1` (relative stereo) [Example 139, trans-N-[3-{[4-(4-methyl-1H-imidazol-1-yl)phenoxy]methyl}tetrahydro-2H-pyran-4-yl]ethanesulfonamide], the “activity (%)” value was 97%. In the case of `CCS(=O)(=O)N[C@H]1CCOC[C@@H]1COc1ccc(-n2cc(Cl)cn2)cc1` (relative stereo) [Example 140, trans-N-[3-{[4-(4-chloro-1H-pyrazol-1-yl)phenoxy]methyl}tetrahydro-2H-pyran-4-yl]ethanesulfonamide], the “activity (%)” value is reported as 90%. In the case of `CCS(=O)(=O)N[C@H]1CCC(F)(F)C[C@@H]1COc1ccc(-n2cc(C)cn2)cc1` (relative stereo) [Example 141, trans-N-[4,4-difluoro-2-{[4-(4-methyl-1H-pyrazol-1-yl)phenoxy]methyl}cyclohexyl]ethanesulfonamide], the “activity (%)” value is reported as 78%. For `CCS(=O)(=O)N[C@H]1CCC(F)(F)C[C@@H]1COc1ccc(-n2ccc(C)n2)cc1` (relative stereo) [Example 142, trans-N-[4,4-difluoro-2-{[4-(3-methyl-1H-pyrazol-1-yl)phenoxy]methyl}cyclohexyl]ethanesulfonamide], the “activity (%)” value was 54%.
